Laboratory results: ChEMBL document CHEMBL5649166, “RIP3 induces apoptosis independent of pronecrotic kinase activity” (Mol Cell, 2014)
Active and inactive are the calls of the source. The calls are words filed in the database; no cut-off is given here.

How the values were obtained:
[1] = test system: L929; assay: Inhibition of TNF-alpha induced necroptosis in mouse L929 cells assessed as increase in cell viability at 30 uM incubated for 18 hrs in presence of zVAD by Cell Titer-Glo luminescent cell viability assay; type: functional, cell-based
[2] = test system: L929; assay: Inhibition of TLR-3 induced necroptosis in mouse L929 cells assessed as increase in cell viability at 30 uM incubated for 18 hrs in presence of zVAD and poly(I:C) by Cell Titer-Glo luminescent cell viability assay; type: functional, cell-based
[3] = test system: SVEC4-10; assay: Inhibition of TNF-induced necroptosis in mouse SVEC4-10 cells assessed as increase in cell viability incubated for 18 hrs in presence of zVAD by Cell Titer-Glo luminescent cell viability assay; type: functional, cell-based
[4] = test system: SVEC4-10; assay: Inhibition of DAI-induced necroptosis in MCMV M45mutRHIM infected mouse SVEC4-10 cells assessed as increase in cell viability incubated for 18 hrs by Cell Titer-Glo luminescent cell viability assay; type: functional, cell-based
[5] = test system: 3T3SA; assay: Induction of apoptosis in mouse 3T3SA cells assessed as cell death by measuring percent of PI positive cells incubated for 3 hrs in presence of TNF by PI staining based flow cytometric analysis (reference value: 10.7%); type: toxicity
[6] = test system: 3T3SA; assay: Induction of apoptosis in mouse 3T3SA cells assessed as cell death by measuring percent of PI positive cells incubated for 8 hrs in presence of TNF by PI staining based flow cytometric analysis (reference value: 11.4%); type: toxicity
[7] = test system: L929; assay: Inhibition of TLR-3 induced necroptosis in mouse L929 cells assessed as increase in cell viability at 10 uM incubated for 18 hrs in presence of zVAD and poly(I:C) by Cell Titer-Glo luminescent cell viability assay; type: functional, cell-based
[8] = test system: L929; assay: Inhibition of TNF-alpha induced necroptosis in mouse L929 cells assessed as increase in cell viability at 10 uM incubated for 18 hrs in presence of zVAD by Cell Titer-Glo luminescent cell viability assay; type: functional, cell-based

| SMILES | inhibition [1] | inhibition [2] | inhibition [3] | inhibition [4] | Activity [5] | Activity [6] | inhibition [7] | inhibition [8] |
| --- | --- | --- | --- | --- | --- | --- | --- | --- |
| CN1C(=O)C(Cc2c[nH]c3ccccc23)NC1=S (stereo not given) | Active | inactive | Active | inactive |  |  |  |  |
| C[C@@H]1CC([C@H](O)CC2CC(=O)NC(=O)C2)C(=O)[C@@H](C)C1 (stereo not given in full) |  |  |  |  | 22% | 60% |  |  |
| CC(C)(C)C(=O)N1N=CC[C@H]1c1ccccc1 |  |  | Active | inactive |  |  | inactive | Active |
